The values that follow come from patent US8202865B2, “Oxadiazole derivatives” (Merck Serono SA, priority 2007, dated 2012).

Molecules are shown by their SMILES.

For the assay, the target named is T1, S1P1 (Homo sapiens, UniProt P21453).
T1 construct: expressed in transfected cells; host or cells: CHO cells (membranes)
T1 sequence (P21453 whole entry, species assumed): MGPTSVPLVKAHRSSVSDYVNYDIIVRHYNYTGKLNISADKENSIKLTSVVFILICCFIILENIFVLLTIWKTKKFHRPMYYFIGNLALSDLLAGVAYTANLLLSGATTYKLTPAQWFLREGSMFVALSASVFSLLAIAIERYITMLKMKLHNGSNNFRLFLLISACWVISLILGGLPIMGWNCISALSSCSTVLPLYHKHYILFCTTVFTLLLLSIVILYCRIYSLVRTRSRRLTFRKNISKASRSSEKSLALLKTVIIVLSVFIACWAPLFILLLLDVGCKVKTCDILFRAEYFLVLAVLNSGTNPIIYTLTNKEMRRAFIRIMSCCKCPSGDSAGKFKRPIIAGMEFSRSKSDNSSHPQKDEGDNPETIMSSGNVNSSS
The assay is described as follows: 35S-GTPγS binding, S1P1 membranes. As to conditions: membranes from CHO cells expressing S1P1; 60 min 30° C. The assay is classed as biochemical. The method, then: Receptor binding assay: Membranes were prepared from CHO cells expressing S1P1 or S1P3 for use in ligand and […] binding studies. Cells were suspended in 50 mM TRIS, pH 7.4, 2 mM EDTA, 250 mM Sucrose (buffer A) and 1× Complete protease inhibitor cocktail (Roche), and disrupted at 4° C. by N2 decompression using a cell disruption bomb (Parr Instrument). Following centrifugation at 1000 RPM for 10 min at 4° C., the supernatant was suspended in buffer A and centrifuged again at 19000 RPM for 60 min at 4° C. The pellet was then suspended in 10 mM HEPES, pH 7.4, 1 mM EDTA, 250 mM Sucrose (Buffer B), and 1× Complete EDTA-free protease inhibitor cocktail and homogenized using a potter. Membranes were flash frozen in liquid N2 and stored at −80° C. [33P]sphingosine 1-phosphate (3000 Ci/mmol; American Radiolabeled Chemicals, Inc.) was added to test compounds in DMSO. Membranes and WGA SPA beads (GE Healthcare) were added to give a final volume of 100 μl in 96-well plates with assay concentrations of 25 pM or 10 pM [33P]sphingosine 1-phosphate (respectively for S1P1 or S1P3), 50 mM HEPES, pH 7.5, 5 mM MgCl2, 100 mM NaCl, 0.4% fatty acid-free BSA, 1-5 μg/well of proteins and 100 μg/well of WGA SPA beads. Binding was performed for 60 min at RT on a shaker and bound radioactivity was measured on a PerkinElmer 1450 MicroBeta counter. Specific binding was calculated by subtracting remaining radioactivity in the presence of 1000-fold excess of unlabeled S1P. Binding data were analyzed using the GraphPad Prism program.
Measurements of ^35S-GTPγS Binding: Membranes (1 to 10 μg protein) prepared as described above, were incubated in 96-well Scintiplates (PerkinElmer) with test compounds diluted in DMSO, in 180 μl of 20 mM HEPES, pH 7.4, 10 mM MgCl2, 2 μg/well Saponin, 0.2% fatty acid free BSA (Assay buffer), 140 mM NaCl and 1.7 μM GDP. The assay was initiated with the addition of 20 μl of 1.5 nM [35S]-GTPγS (1100 Ci/mmol; GE Healthcare) in assay buffer. After 60 min incubation at 30° C. on a shaker, plates were centrifuged for 10 min at 2000 RPM. Supernatant was discarded and membrane bound radioactivity was measured on a PerkinElmer 1450 MicroBeta counter. Triplicate samples were averaged and expressed as % response relative to S1P activation in absence of compound (n=2).
(In general: GTPγS resists hydrolysis and so accumulates on activated G proteins.)
As to `Cc1ccccc1-c1ccc(-c2nc(-c3ccc(C(=O)O)c(F)c3)no2)cc1` [Example 5, 2-fluoro-4-[5-(2′-methylbiphenyl-4-yl)-1,2,4-oxadiazol-3-yl]benzoic acid], the EC50 (usually the concentration at which the effect is half-maximal) amounted to 5.14 µM.
For `Cc1cc(-c2nc(-c3ccc(C(=O)O)c(F)c3)no2)ccc1-c1ccccc1` [Example 6, 2-fluoro-4-[5-(2-methylbiphenyl-4-yl)-1,2,4-oxadiazol-3-yl]benzoic acid], the response was half-maximal at 2.92 µM (EC50).
As for `Cc1cc(-c2nc(-c3ccc(C(=O)O)c(F)c3)no2)ccc1-c1ccccc1C(F)(F)F` [Example 8, 2-fluoro-4-{5-[2-methyl-2′-(trifluoromethyl)biphenyl-4-yl]-1,2,4-oxadiazol-3-yl}benzoic acid], a half-maximal response (EC50) required 0.85 µM.
For `O=C(O)c1ccc(-c2noc(-c3ccc(N4CCCCC4)c([N+](=O)[O-])c3)n2)cc1F` [Example 14, 2-fluoro-4-[5-(3-nitro-4-piperidin-1-ylphenyl)-1,2,4-oxadiazol-3-yl]benzoic acid], the half-maximal effective concentration (EC50) turned out to be 5.18 µM. Against the preceding molecule, the EC50 is about 6.1-fold higher.
The molecule `Cc1cc(-c2nc(-c3ccc(C(=O)O)c(F)c3)no2)ccc1N1CCCCC1` [Example 16, 2-fluoro-4-[5-(3-methyl-4-piperidin-1-ylphenyl)-1,2,4-oxadiazol-3-yl]benzoic acid] returned a half-maximal effective concentration (EC50) of 2.06 µM. This EC50 is about 2.5-fold lower than that of the molecule before.
The value for `O=C(O)c1ccc(-c2noc(-c3ccc(N4CCOCC4)c(C(F)(F)F)c3)n2)cc1F` [Example 17, 2-fluoro-4-{5-[4-morpholin-4-yl-3-(trifluoromethyl)phenyl]-1,2,4-oxadiazol-3-yl}benzoic acid] was 3.45 µM; that for `Cc1cc(-c2nc(-c3ccc(C(=O)O)c(F)c3)no2)ccc1N1CCOCC1` [Example 18, 2-fluoro-4-[5-(3-methyl-4-morpholin-4-ylphenyl)-1,2,4-oxadiazol-3-yl]benzoic acid] was 7 µM.
`COc1ccc(-c2ccc(-c3nc(-c4ccc(C(=O)O)c(F)c4)no3)cc2C)c(OC)c1` [Example 20, 4-[3-(2′,4′-dimethoxy-2-methylbiphenyl-4-yl)-1,2,4-oxadiazol-3-yl]-2-fluorobenzoic acid] registered a half-maximal effective concentration (EC50) of 10.9 µM.
`O=C(O)c1ccc(-c2noc(-c3ccc([N+](=O)[O-])c(N4CCCCC4)c3)n2)cc1F` [Example 21, 2-fluoro-4-[5-(4-nitro-3-piperidin-1-ylphenyl)-1,2,4-oxadiazol-3-yl]benzoic acid] gave an EC50 of 9.74 µM.
The molecule `COc1ccc(OC)c(-c2ccc(-c3nc(-c4ccc(C(=O)O)c(F)c4)no3)cc2C)c1` [Example 24, 4-[3-(2′,5′-dimethoxy-2-methylbiphenyl-4-yl)-1,2,4-oxadiazol-3-yl]-2-fluorobenzoic acid] returned a half-maximal effective concentration (EC50) of 10.4 µM.
`Cc1cc(-c2nc(-c3ccc(C(=O)O)c(F)c3)no2)ccc1-c1c(C)noc1C` [Example 25, 4-{5-[4-(3,5-dimethylisoxazol-4-yl)-3-methylphenyl]-1,2,4-oxadiazol-3-yl}-2-fluorobenzoic acid]: the EC50 is 14.2 µM.
As for `Cc1cc(-c2nc(-c3ccc(C(=O)O)c(F)c3)no2)ccc1-c1ccccc1-c1ccccc1` [Example 31, 2-fluoro-4-[5-(2-methyl-1,1′:2′,1″-terphenyl-4-yl)-1,2,4-oxadiazol-3-yl]benzoic acid], it took 2.4 µM to reach a half-maximal effect (EC50).
`Cc1cc(-c2nc(-c3ccc(C(=O)O)c(F)c3)no2)ccc1-c1ccccc1O` [Example 32, 2-fluoro-4-[5-(2′-hydroxy-2-methylbiphenyl-4-yl)-1,2,4-oxadiazol-3-yl]benzoic acid]: a half-maximal response (EC50) required 2.92 µM.
With `CC1CCCCN1c1ccc(-c2nc(-c3ccc(F)c(C(=O)O)c3)no2)cc1C(F)(F)F` (stereo not drawn) [Example 33, 2-fluoro-5-{5-[4-(2-methylpiperidin-1-yl)-3-(trifluoromethyl)phenyl]-1,2,4-oxadiazol-3-yl}benzoic acid], it took 0.18 µM to reach a half-maximal effect (EC50).
`CC1CCCCN1c1ccc(-c2nc(-c3ccc(S(N)(=O)=O)cc3)no2)cc1C(F)(F)F` (stereo not drawn) [Example 38, 4-{5-[4-(2-methylpiperidin-1-yl)-3-(trifluoromethyl)phenyl]-1,2,4-oxadiazol-3-yl}benzenesulfonamide]: the EC50 turned out to be 0.0015 µM.
